Laboratory results taken from patent publication US8796259B2, “N3-heteroaryl substituted triazoles and N5-heteroaryl substituted triazoles useful as axl inhibitors” (Rigel Pharmaceuticals, Inc., priority 2006, dated 2014).

Biological target: T1, Axl (Homo sapiens, UniProt P30530)
T1 construct: endogenous in cells; host or cells: HeLa cells
T1 sequence (P30530 26-894): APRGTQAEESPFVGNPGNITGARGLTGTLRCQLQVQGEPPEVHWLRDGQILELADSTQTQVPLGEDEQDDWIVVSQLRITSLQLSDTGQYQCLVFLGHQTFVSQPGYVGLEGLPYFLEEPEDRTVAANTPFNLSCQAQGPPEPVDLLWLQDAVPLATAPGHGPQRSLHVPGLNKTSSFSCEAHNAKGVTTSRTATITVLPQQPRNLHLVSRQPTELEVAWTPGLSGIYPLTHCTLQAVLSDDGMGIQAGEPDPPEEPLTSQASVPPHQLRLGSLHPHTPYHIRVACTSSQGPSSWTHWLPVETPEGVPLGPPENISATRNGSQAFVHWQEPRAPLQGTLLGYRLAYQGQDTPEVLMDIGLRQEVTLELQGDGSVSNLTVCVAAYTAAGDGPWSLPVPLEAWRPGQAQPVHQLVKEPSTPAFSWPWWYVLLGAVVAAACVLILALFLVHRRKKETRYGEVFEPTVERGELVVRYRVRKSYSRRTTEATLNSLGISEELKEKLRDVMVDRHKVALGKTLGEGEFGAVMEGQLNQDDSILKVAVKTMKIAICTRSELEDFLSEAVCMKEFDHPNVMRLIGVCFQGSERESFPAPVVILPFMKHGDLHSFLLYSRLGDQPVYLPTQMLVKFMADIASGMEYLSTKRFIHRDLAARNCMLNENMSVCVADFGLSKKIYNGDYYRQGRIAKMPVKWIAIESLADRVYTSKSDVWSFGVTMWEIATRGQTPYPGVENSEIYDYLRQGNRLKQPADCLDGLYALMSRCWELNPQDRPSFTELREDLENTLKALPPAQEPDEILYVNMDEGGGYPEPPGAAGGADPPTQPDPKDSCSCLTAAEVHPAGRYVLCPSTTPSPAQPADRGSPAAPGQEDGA
Test: Phospho-Akt in-cell Western assay (inhibition of Axl activity, Axl-antibody cross-linking stimulation)
Assay type: cell-based
Conditions: Hela cells, phospho-Akt readout
Outline: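 HeLa cells on poly-L-lysine were starved 24 h in 0.5% FCS/DMEM with 500 ng/mL Axl/Fc, pre-treated with compound 1 h at 37 °C, then stimulated 5 min by cross-linked mouse anti-Axl/biotin anti-mouse antibody clusters. After formaldehyde fixation, phospho-Akt was detected by rabbit anti-phospho-Akt and HRP secondary with chemiluminescence read-out.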

[1] = compounds of formula (Ia), Table 1

Row | Compound | IC50 [1] | IC50 (compounds of formula (Ib), Table 2)
1 | Cc1csc2c(-n3nc(Nc4cnc5c(c4)CN(C(=O)C4CCNCC4)CC5)nc3N)nc(Cl)nc12 [compound 87, 1-(2-chloro-7-methylthieno [3,2-d]pyrimidin-4-yl)-N^3-(6-(piperidin-4-ylcarbonyl)-5,6,7,8-tetrahydro-1,6-naphthyridin-3-yl)-1H-1,2,4-triazole-3,5-diamine] | > 20000 nM | –
2 | Cc1csc2c(-n3nc(Nc4ccc(C5CCN(C6CC7CCC6C7)CC5)nc4)nc3N)ncnc12 (stereo not drawn) [compound 88, 1-(7-methylthieno [3,2-d]pyrimidine-4-yl)-N^3-(6-(1-bicyclo [2.2.1]heptan-2-ylpiperidin-4-yl)pyridine-3-yl)-1H-1,2,4-triazole-3,5-diamine] | < 1000 nM | –
3 | Cc1csc2c(-n3nc(Nc4ccc(N5CCN(CC6CC6)CC5)nc4)nc3N)ncnc12 [compound 89, 1-(7-methylthieno [3,2-d]pyrimidine-4-yl)-N^3-(6-(4-(cyclopropyl-methyl)piperazin-1-yl)pyridine-3-yl)-1H-1,2,4-triazole-3,5-diamine] | < 1000 nM | –
4 | COc1cc2ncnc(-n3nc(Nc4ccc(C=CCN5CCN(C6CCCC6)CC5)nc4)nc3N)c2cc1OC [compound 90, 1-(6,7-dimethoxy-quinazoline-4-yl)-N^3-(6-(3-(4-cyclopentyl-piperazin-1-yl)propenyl)pyridin-3-yl)-1H-1,2,4-triazole-3,5-diamine] | < 1000 nM | –
5 | Cc1csc2c(-n3nc(Nc4cnc(N5CCC(N6CCCC6)CC5)nc4)nc3N)nc(Cl)nc12 [compound 91, 1-(2-chloro-7-methylthieno [3,2-d]pyrimidin-4-yl)-N^3-(2-(4-pyrrolidin-1ylpiperidin-1-yl)pyrimidin-5-yl)-1H-1,2,4-triazole-3,5-diamine] | < 1000 nM | –
6 | Cc1cc(Nc2nc(N)nn2-c2nc(Cl)nc3c(C)csc23)cnc1N1CCC(N2CCCC2)CC1 [compound 92, 1-(2-chloro-7-methylthieno[3,2-d]pyrimidin-4-yl)-N^5-(6-(4-(pyrrolidin-1-yl)piperidin-1-yl)-5-methylpyridin-3-yl)-1H-1,2,4-triazole-3,5-diamine] | – | 1000 to 10000 nM
7 | Cc1cc(Nc2nc(N)n(-c3ncnc4c(C)csc34)n2)cnc1N1CCN(CC2CC2)CC1 [compound 94, 1-(7-methylthieno [3,2-d]pyrimidine-4-yl)-N^3-(6-(4-(cyclopropyl-methyl)piperazin-1-yl)-5-methyl-pyridine-3-yl)-1H-1,2,4-triazole-3,5-diamine] | < 1000 nM | –
8 | Cc1cc(Nc2nc(N)n(-c3nc(Cl)nc4c(C)csc34)n2)cnc1N1CCN(CC2CC2)CC1 [compound 95, 1-(2-chloro-7-methylthieno [3,2-d]pyrimidin-4-yl)-N^3-(6-(4-(cyclopropyl-methyl)piperazin-1-yl)-5-methyl-pyridin-3-yl)-1H-1,2,4-triazole-3,5-diamine] | < 1000 nM | –
9 | Cc1csc2c(-n3nc(Nc4cnc5c(c4)CN(C(=O)C4CCN(C)CC4)CC5)nc3N)ncnc12 [compound 96, 1-(7-methylthieno [3,2-d]pyrimidin-4-yl)-N^3-(6-(1-methyl-piperidin-4-yl)carbonyl-5,6,7,8-tetrahydro-1,6-naphthyridin-3-yl)-1H-1,2,4-triazole-3,5-diamine] | < 1000 nM | –
10 | Cc1csc2c(-n3nc(Nc4cnc5c(c4)CN(C4CCCC4)CC5)nc3N)ncnc12 [compound 97, 1-(7-methylthieno [3,2-d]pyrimidin-4-yl)-N^3-(6-cyclopentyl-5,6,7,8-tetrahydro-1,6-naphthyridin-3-yl)-1H-1,2,4-triazole-3,5-diamine] | < 1000 nM | –
11 | Cc1csc2c(-n3nc(Nc4cnc5c(c4)CC(NC(=O)C4CCN(C)CC4)CC5)nc3N)ncnc12 (stereo not drawn) [compound 98] | < 1000 nM | –
12 | Cc1csc2c(-n3nc(Nc4cnc5c(c4)CC(NC4CCCC4)CC5)nc3N)ncnc12 (stereo not drawn) [compound 99, 1-(7-methylthieno [3,2-d]pyrimidin-4-yl)-N^3-(6-cyclopentyl-amino-5,6,7,8-tetrahydro-quinolin-3-yl)-1H-1,2,4-triazole-3,5-diamine] | < 1000 nM | –
13 | Cc1csc2c(-n3nc(Nc4cnc5c(c4)CC(NC4CCCCC4)CC5)nc3N)nc(Cl)nc12 (stereo not drawn) [compound 100, 1-(2-chloro-7-methylthieno [3,2-d]pyrimidin-4-yl)-N^3-(6-cyclohexyl-amino-5,6,7,8-tetrahydro-quinolin-3-yl)-1H-1,2,4-triazole-3,5-diamine] | < 1000 nM | –
14 | Cc1csc2c(-n3nc(Nc4cnc5c(c4)CN(CC4CC4)CC5)nc3N)nc(Cl)nc12 [compound 101, 1-(2-chloro-7-methylthieno [3,2-d]pyrimidin-4-yl)-N^3-(6-cyclopropyl-methyl-5,6,7,8-tetrahydro-1,6-naphthyridin-3-yl)-1H-1,2,4-triazole-3,5-diamine] | < 1000 nM | –
15 | Cc1csc2c(-n3nc(Nc4cnc5c(c4)CN(C4CC6CCC4C6)CC5)nc3N)nc(Cl)nc12 (stereo not drawn) [compound 102, 1-(2-chloro-7-methylthieno [3,2-d]pyrimidin-4-yl)-N^3-(6-bicyclo[2.2.1]heptan-2-yl-5,6,7,8-tetrahydro-1,6-naphthyridin-3-yl)-1H-1,2,4-triazole-3,5-diamine] | < 1000 nM | –
16 | Cc1csc2c(-n3nc(Nc4cnc5c(c4)CC(NC4CC6CCC4C6)CC5)nc3N)nc(Cl)nc12 (stereo not drawn) [compound 103, 1-(2-chloro-7-methylthieno [3,2-d]pyrimidin-4-yl)-N^3-(6-bicyclo[2.2.1]heptan-2-yl-amino-5,6,7,8-tetrahydro-quinolin-3-yl)-1H-1,2,4-triazole-3,5-diamine] | < 1000 nM | –
17 | Cc1csc2c(-n3nc(Nc4cnc5c(c4)CC(N(CC4CC4)CC4CC4)CC5)nc3N)nc(Cl)nc12 (stereo not drawn) [compound 104, 1-(2-chloro-7-methylthieno [3,2-d]pyrimidin-4-yl)-N^3-(6-bis-(cyclo-propylmethyl)amino-5,6,7,8-tetrahydro-quinolin-3-yl)-1H-1,2,4-triazole-3,5-diamine] | < 1000 nM | –
18 | Cc1csc2c(-n3nc(Nc4cnc5c(c4)CCC(N4CCCC4)CC5)nc3N)ncnc12 (stereo not drawn) [compound 105, 1-(7-methylthieno [3,2-d]pyrimidin-4-yl)-N^3-(7-(pyrrolidin-1-yl)-6,7,8,9-tetrahydro-5H-cyclohepta [b]pyridine-3-yl)-1H-1,2,4-triazole-3,5-diamine] | < 1000 nM | –
19 | Cc1cc(Nc2nc(N)n(-c3ncnc4c(C)csc34)n2)cnc1N1CCN([C@H]2C[C@@H]3CC[C@H]2C3)[C@@H](C)C1 [compound 106, 1-(7-methylthieno [3,2-d]pyrimidin-4-yl)-N^3-(2-(3-(S)-methyl-4-(1S,2S,4R)-bicyclo[2.2.1]heptan-2-ylpiperazin-1-yl)-3-methylpyridin-5-yl)-1H-1,2,4-triazole-3,5-diamine] | < 1000 nM | –
20 | Cc1cc(Nc2nc(N)n(-c3nc(Cl)nc4c(C)csc34)n2)cnc1N1CCN([C@H]2CC3CCC2C3)[C@@H](C)C1 (stereo partly drawn) [compound 107, 1-(2-chloro-7-methylthieno [3,2-d]pyrimidin-4-yl)-N^3-(2-(3-(S)-methyl-4-(2S)-bicyclo[2.2.1]heptan-2-ylpiperazin-1-yl)-3-methylpyridin-5-yl)-1H-1,2,4-triazole-3,5-diamine] | < 1000 nM | –
21 | Cc1cc(Nc2nc(N)n(-c3ncnc4ccsc34)n2)cnc1N1CCN([C@H]2CC3CCC2C3)[C@@H](C)C1 (stereo partly drawn) [compound 108, 1-(thieno [3,2-d]pyrimidin-4-yl)-N^3-(2-(3-(S)-methyl-4-(2S)-bicyclo[2.2.1]heptan-2-ylpiperazin-1-yl)-3-methylpyridin-5-yl)-1H-1,2,4-triazole-3,5-diamine] | < 1000 nM | –
